Assays:
GH29 fucosidase E1_10125 [1] = molecular target: T1, GH29 fucosidase E1_10125 (Mediterraneibacter gnavus, UniProt A0A6N3BKT0, D236A); assay: ITC; also STD NMR; format: binding
T1 construct: gene hypBA2

GH29 fucosidase E1_10125 [2] = molecular target: T2, GH29 fucosidase E1_10125 (Mediterraneibacter gnavus, UniProt A0A6N3BKT0, D236A); assay: STD NMR binding epitope mapping
T2 construct: gene hypBA2
T2 sequence (A0A6N3BKT0 35-583 D236A): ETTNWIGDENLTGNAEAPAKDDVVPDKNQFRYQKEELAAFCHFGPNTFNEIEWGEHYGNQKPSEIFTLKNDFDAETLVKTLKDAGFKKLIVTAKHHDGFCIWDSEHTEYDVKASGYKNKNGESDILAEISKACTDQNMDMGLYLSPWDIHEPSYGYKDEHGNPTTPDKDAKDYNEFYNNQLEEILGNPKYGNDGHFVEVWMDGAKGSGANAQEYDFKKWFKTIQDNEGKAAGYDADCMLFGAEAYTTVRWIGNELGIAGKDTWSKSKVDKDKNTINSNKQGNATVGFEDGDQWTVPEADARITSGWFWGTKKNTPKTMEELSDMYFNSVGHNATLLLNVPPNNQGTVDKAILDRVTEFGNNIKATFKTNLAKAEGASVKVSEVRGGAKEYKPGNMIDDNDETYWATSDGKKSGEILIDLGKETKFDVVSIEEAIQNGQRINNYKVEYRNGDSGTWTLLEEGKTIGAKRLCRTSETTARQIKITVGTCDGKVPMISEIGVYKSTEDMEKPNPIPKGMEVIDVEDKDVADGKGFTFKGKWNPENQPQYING

GH29 fucosidase E1_10125 [3] = molecular target: T2, GH29 fucosidase E1_10125; assay: X-ray crystal structure ([…] Å) and ITC; format: binding

Compound	Kd (GH29 fucosidase E1_10125 [1])	STD NMR binding epitope mapping (GH29 fucosidase E1_10125 [2])	further results
CC(=O)N[C@H]1C(O)O[C@H](CO)[C@@H](O[C@@H]2O[C@H](CO)[C@H](O)[C@H](O[C@H]3O[C@H](CO)[C@H](O)[C@H](O)[C@H]3O)[C@H]2O)[C@@H]1O[C@@H]1O[C@@H](C)[C@@H](O)[C@@H](O)[C@@H]1O (stereo partly drawn) [αGal-LeX, α1–3Gal-Lewis X]	47.1 ± 5.6 µM	–	–
CC(=O)N[C@H]1C(O)O[C@H](CO)[C@@H](O[C@@H]2O[C@@H](C)[C@@H](O)[C@@H](O)[C@@H]2O)[C@@H]1O[C@@H]1O[C@H](CO)[C@H](O)[C@H](O)[C@H]1O (stereo partly drawn) [LeA, Lewis A]	–	The enzyme intimately recognized the three sugar residues constituting 3FL and LeA	–
CC(=O)N[C@H]1[C@H]([C@H](O)[C@H](O)CO)O[C@@](O[C@H]2[C@@H](O)[C@@H](CO)O[C@@H](O[C@H]3[C@H](O[C@@H]4O[C@@H](C)[C@@H](O)[C@@H](O)[C@@H]4O)[C@@H](NC(C)=O)C(O)O[C@@H]3CO)[C@@H]2O)(C(=O)O)C[C@@H]1O (stereo partly drawn) [sLeX, 3′-Sialyl Lewis X]	3.59 ± 0.48 µM	–	–
C[C@@H]1O[C@@H](O[C@H]2[C@H](O[C@@H]3O[C@H](CO)[C@H](O)[C@H](O)[C@H]3O)[C@@H](CO)OC(O)[C@@H]2O)[C@@H](O)[C@H](O)[C@@H]1O (stereo partly drawn) [3FL]	–	The enzyme intimately recognized the three sugar residues constituting 3FL and LeA	–
CC(=O)N[C@H]1C(O)O[C@H](CO)[C@@H](O[C@@H]2O[C@H](CO)[C@H](O)[C@H](O)[C@H]2O)[C@@H]1O[C@@H]1O[C@@H](C)[C@@H](O)[C@@H](O)[C@@H]1O (stereo partly drawn) [LeX, Lewis X]	51.4 ± 1.93 µM	–	–
C[C@@H]1OC(O)[C@@H](O)[C@H](O)[C@@H]1O (stereo partly drawn) [Fuc, L-fucose]	–	–	Kd (GH29 fucosidase E1_10125 [3]): 21.7 µM
